Test results reported in EP3046573B1, “AMYLIN ANALOGUES” (Zealand Pharma A/S, priority 2013, dated 2015).
pEC50: −log10 of the molar value. Where two headings read alike, the source gives them in different places. Numbered stars: 1 amine (or outer) side, 2 acyl side, 3 side chain; on linkers, the order of the positions; unused ones are H or OH. Bridge positions count the residues as written; N and C are the ends. Square brackets hold non-standard residues; d marks the D form. Peptide text beside a SMILES is read from it. * marks the point of attachment. C20 diacid = O=C(O)CCCCCCCCCCCCCCCCCCC(=O)*; γGlu = O=C(O)[C@H](CCC(=O)[*:2])N[*:1]; NMeI = CC[C@H](C)[C@H](NC)C(=O)O; Aze = O=C(O)[C@@H]1CCN1; Sar = CNCC(=O)O

Tests used:
[1] = biological target: T1, human amylin receptor 3 (hAMYR3) consisting of hCTR2 co-expressed with human Receptor Activity Modifying Protein 3 (hRAMP3) (Homo sapiens, UniProt O60896+P30988); assay: hAMYR3 assay: induction of cAMP (AlphaScreen cAMP Assay kit) in COS7 cells expressing hAMYR3; format: cell-based
T1 construct: expressed in transfected cells
T1 sequence (P30988 25-474): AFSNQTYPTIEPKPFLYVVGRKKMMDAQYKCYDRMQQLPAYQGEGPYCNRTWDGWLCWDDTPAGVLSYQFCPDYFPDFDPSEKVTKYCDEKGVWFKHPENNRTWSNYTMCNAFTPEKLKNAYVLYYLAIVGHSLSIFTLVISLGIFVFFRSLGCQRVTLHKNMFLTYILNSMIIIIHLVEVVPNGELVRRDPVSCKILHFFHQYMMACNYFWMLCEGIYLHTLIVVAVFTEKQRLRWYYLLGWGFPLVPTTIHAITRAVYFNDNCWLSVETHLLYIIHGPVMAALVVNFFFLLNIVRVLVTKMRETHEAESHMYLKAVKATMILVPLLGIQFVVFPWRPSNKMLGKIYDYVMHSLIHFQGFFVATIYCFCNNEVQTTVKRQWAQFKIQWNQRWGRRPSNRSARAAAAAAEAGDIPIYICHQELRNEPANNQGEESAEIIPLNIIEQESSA
T1 sequence (O60896 24-148 partner): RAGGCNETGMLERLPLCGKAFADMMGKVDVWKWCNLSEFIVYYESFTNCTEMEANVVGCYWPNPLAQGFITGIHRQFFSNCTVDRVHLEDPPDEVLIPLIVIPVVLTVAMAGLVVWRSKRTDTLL
In short: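 cAMP accumulation read by AlphaScreen in lysates of RAMP-naive COS7 cells stably transfected with hCTR2 plus hRAMP3. Cells exposed to peptide dilutions for 15 min, 37° C, with 100 µM IBMX; 4PL fitting gave EC50 and efficacy relative to pramlintide.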

[2] = Assessment of physical stability: fibril formation detected with Thioflavin T (ThT), lag-time; format: physicochemical; settings: 1 mg/ml peptide, 40 µM ThT, FND = Fibrillation not detected; for Fibrillation lag time (hours) pH 4.0 (Ac): 50 mM acetate buffer pH 4.0, 96 hours at 40°C; for Fibrillation lag time (hours) pH 7.0 (His): 50 mM histidine buffer pH 7.0, 96 hours at 40°C; for Fibrillation lag time (hours) pH 7.0 (Ph): 50 mM phosphate buffer pH 7.0, 96 hours at 40°C
In short: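 Test peptide at 1 mg/ml with 40 µM ThT in 50 mM phosphate (pH 7.0), 50 mM histidine (pH 7.0) or 50 mM acetate (pH 4.0), in triplicate, 40° C. for 96 h. Fluorescence read every 10 min after 300 s agitation. Lag-time (h) taken as intersection of linear fits to initial stable and growth phases.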

| Structure (SMILES) | pEC50 ([1]; cAMP induction in COS7 cells expressing hAMYR3, average of a minimum of 3 determinations, read-out: hAMY R3 EC50) | Fibrillation lag time (hours) pH 4.0 (Ac) [2] | Fibrillation lag time (hours) pH 7.0 (His) [2] | Fibrillation lag time (hours) pH 7.0 (Ph) [2] | pEC50 [1] |
| --- | --- | --- | --- | --- | --- |
| CC[C@H](C)[C@@H](C(=O)N[C@@H](CC(C)C)C(=O)N[C@@H](CO)C(=O)N[C@@H](CO)C(=O)N[C@H](C(=O)N[C@@H](CC(=O)O)C(=O)N[C@H](C(=O)NCC(=O)N[C@@H](CO)C(=O)N[C@@H](CC(=O)O)C(=O)N[C@H](C(=O)N1CCC[C@H]1C(N)=O)[C@@H](C)O)C(C)C)[C@@H](C)O)N(C)C(=O)[C@H](C)NC(=O)CN(C)C(=O)[C@H](Cc1ccccc1)NC(=O)[C@H](CO)NC(=O)[C@H](CO)NC(=O)[C@H](CO)NC(=O)[C@H](CO)NC(=O)[C@H](CCCNC(=N)N)NC(=O)[C@H](Cc1c[nH]cn1)NC(=O)[C@H](CC(C)C)NC(=O)[C@H](Cc1ccccc1)NC(=O)[C@H](CCC(=O)O)NC(=O)[C@H](C)NC(=O)[C@H](CC(C)C)NC(=O)[C@H](CCCNC(=N)N)NC(=O)[C@H](CCC(N)=O)NC(=O)[C@@H](NC(=O)[C@H](C)NC(=O)[C@@H]1CSSC[C@H](NC(=O)[C@H](CCCNC(=N)N)NC(=O)CC[C@H](NC(=O)CCCCCCCCCCCCCCCCCCC(=O)O)C(=O)O)C(=O)N[C@@H](CC(N)=O)C(=O)N[C@@H]([C@@H](C)O)C(=O)N[C@@H](C)C(=O)N[C@@H]([C@@H](C)O)C(=O)N1)[C@@H](C)O [Compound 73, [19CD]-isoGlu-RC()NTATC()ATQRLAEFLHRSSSSF-Gly(Me)-A-Ile(Me)-LSSTDVGSDTP-NH2] ({C20 diacid-γGlu}-RCNTATCATQRLAEFLHRSSSSF[Sar]A[NMeI]LSSTDVGSDTP-NH2; disulfide 2-7) | 9.85 | FND | FND | FND |  |
| CC[C@H](C)[C@@H](C(=O)N[C@@H](CC(C)C)C(=O)N[C@@H](CO)C(=O)N[C@@H](CO)C(=O)N[C@H](C(=O)N[C@@H](CC(N)=O)C(=O)N[C@H](C(=O)NCC(=O)N[C@@H](CO)C(=O)N[C@@H](CC(N)=O)C(=O)N[C@H](C(=O)N1CCC[C@H]1C(N)=O)[C@@H](C)O)C(C)C)[C@@H](C)O)N(C)C(=O)[C@H](C)NC(=O)CN(C)C(=O)[C@H](Cc1ccccc1)NC(=O)[C@H](CC(N)=O)NC(=O)[C@H](CC(N)=O)NC(=O)[C@H](CO)NC(=O)[C@H](CO)NC(=O)[C@H](Cc1c[nH]cn1)NC(=O)[C@H](Cc1c[nH]cn1)NC(=O)[C@H](CC(C)C)NC(=O)[C@H](Cc1ccccc1)NC(=O)[C@H](CCC(=O)O)NC(=O)[C@H](C)NC(=O)[C@H](CC(C)C)NC(=O)[C@H](CCCNC(=N)N)NC(=O)[C@H](CCC(N)=O)NC(=O)[C@@H](NC(=O)[C@H](C)NC(=O)[C@@H]1CSSC[C@H](NC(=O)[C@H](CCCNC(=N)N)NC(=O)CC[C@H](NC(=O)CCCCCCCCCCCCCCCCCCC(=O)O)C(=O)O)C(=O)N[C@@H](CC(N)=O)C(=O)N[C@@H]([C@@H](C)O)C(=O)N[C@@H](C)C(=O)N[C@@H]([C@@H](C)O)C(=O)N1)[C@@H](C)O [Compound 1, [19CD]-isoGlu-RC()NTATC()ATQRLAEFLHHSSNNF-Gly(Me)-A-Ile(Me)-LSSTNVGSNTP-NH2] ({C20 diacid-γGlu}-RCNTATCATQRLAEFLHHSSNNF[Sar]A[NMeI]LSSTNVGSNTP-NH2; disulfide 2-7) |  | FND^§§ | FND | FND | 9.68 |
| CC[C@H](C)[C@@H](C(=O)N[C@@H](CC(C)C)C(=O)N[C@@H](CO)C(=O)N[C@@H](CO)C(=O)N[C@H](C(=O)N[C@@H](CCC(=O)O)C(=O)N[C@H](C(=O)NCC(=O)N[C@@H](CO)C(=O)N[C@@H](CCC(=O)O)C(=O)N[C@H](C(=O)N1CCC[C@H]1C(N)=O)[C@@H](C)O)C(C)C)[C@@H](C)O)N(C)C(=O)[C@H](C)NC(=O)CN(C)C(=O)[C@H](Cc1ccccc1)NC(=O)[C@H](CO)NC(=O)[C@H](CO)NC(=O)[C@H](CO)NC(=O)[C@H](CO)NC(=O)[C@H](CCCNC(=N)N)NC(=O)[C@H](Cc1c[nH]cn1)NC(=O)[C@H](CC(C)C)NC(=O)[C@H](Cc1ccccc1)NC(=O)[C@H](CCC(=O)O)NC(=O)[C@H](C)NC(=O)[C@H](CC(C)C)NC(=O)[C@H](CCCNC(=N)N)NC(=O)[C@H](CC(=O)O)NC(=O)[C@@H](NC(=O)[C@H](C)NC(=O)[C@@H]1CSSC[C@H](NC(=O)[C@H](CCCNC(=N)N)NC(=O)CC[C@H](NC(=O)CCCCCCCCCCCCCCCCCCC(=O)O)C(=O)O)C(=O)N[C@@H](CC(N)=O)C(=O)N[C@@H]([C@@H](C)O)C(=O)N[C@@H](C)C(=O)N[C@@H]([C@@H](C)O)C(=O)N1)[C@@H](C)O [Compound 120, [19CD]-isoGlu-RC()NTATC()ATDRLAEFLHRSSSSF-Gly(Me)-A-Ile(Me)-LSSTEVGSETP-NH2] ({C20 diacid-γGlu}-RCNTATCATDRLAEFLHRSSSSF[Sar]A[NMeI]LSSTEVGSETP-NH2; disulfide 2-7) |  | FND | FND | FND | 9.82 |
| CC[C@H](C)[C@@H](C(=O)N[C@@H](CC(C)C)C(=O)N[C@@H](CO)C(=O)N[C@@H](CO)C(=O)N[C@H](C(=O)N[C@@H](CC(N)=O)C(=O)N[C@H](C(=O)NCC(=O)N[C@@H](CO)C(=O)N[C@@H](CC(N)=O)C(=O)N[C@H](C(=O)N1CCC[C@H]1C(N)=O)[C@@H](C)O)C(C)C)[C@@H](C)O)N(C)C(=O)[C@H](C)NC(=O)CN(C)C(=O)[C@H](Cc1ccccc1)NC(=O)[C@H](CC(N)=O)NC(=O)[C@H](CC(N)=O)NC(=O)[C@H](CO)NC(=O)[C@H](CO)NC(=O)[C@H](CCCNC(=N)N)NC(=O)[C@H](Cc1c[nH]cn1)NC(=O)[C@H](CC(C)C)NC(=O)[C@H](Cc1ccccc1)NC(=O)[C@H](CCC(=O)O)NC(=O)[C@H](C)NC(=O)[C@H](CC(C)C)NC(=O)[C@H](CCCNC(=N)N)NC(=O)[C@H](CCC(N)=O)NC(=O)[C@@H](NC(=O)[C@H](C)NC(=O)[C@@H]1CSSC[C@H](NC(=O)[C@H](CCCNC(=N)N)NC(=O)CC[C@H](NC(=O)CCCCCCCCCCCCCCCCCCC(=O)O)C(=O)O)C(=O)N[C@@H](CC(N)=O)C(=O)N[C@@H]([C@@H](C)O)C(=O)N[C@@H](C)C(=O)N[C@@H]([C@@H](C)O)C(=O)N1)[C@@H](C)O [Compound 18, [19CD]-isoGlu-RC()NTATC()ATQRLAEFLHRSSNNF-Gly(Me)-A-Ile(Me)-LSSTNVGSNTP-NH2] ({C20 diacid-γGlu}-RCNTATCATQRLAEFLHRSSNNF[Sar]A[NMeI]LSSTNVGSNTP-NH2; disulfide 2-7) |  | 20 hours | 33 hours | 33 hours | 9.77 |
| CC[C@H](C)[C@@H](C(=O)N[C@@H](CC(C)C)C(=O)N[C@@H](CO)C(=O)N[C@@H](CO)C(=O)N[C@H](C(=O)N[C@@H](CC(N)=O)C(=O)N[C@H](C(=O)NCC(=O)N[C@@H](CO)C(=O)N[C@@H](CC(N)=O)C(=O)N[C@H](C(=O)N1CC[C@H]1C(N)=O)[C@@H](C)O)C(C)C)[C@@H](C)O)N(C)C(=O)[C@H](C)NC(=O)CN(C)C(=O)[C@H](Cc1ccccc1)NC(=O)[C@H](CC(N)=O)NC(=O)[C@H](CC(N)=O)NC(=O)[C@H](CO)NC(=O)[C@H](CO)NC(=O)[C@H](CCCNC(=N)N)NC(=O)[C@H](Cc1c[nH]cn1)NC(=O)[C@H](CC(C)C)NC(=O)[C@H](Cc1ccccc1)NC(=O)[C@H](CCC(=O)O)NC(=O)[C@H](C)NC(=O)[C@H](CC(C)C)NC(=O)[C@H](CCCNC(=N)N)NC(=O)[C@H](CCC(N)=O)NC(=O)[C@@H](NC(=O)[C@H](C)NC(=O)[C@@H]1CSSC[C@H](NC(=O)[C@H](CCCNC(=N)N)NC(=O)CC[C@H](NC(=O)CCCCCCCCCCCCCCCCCCC(=O)O)C(=O)O)C(=O)N[C@@H](CC(N)=O)C(=O)N[C@@H]([C@@H](C)O)C(=O)N[C@@H](C)C(=O)N[C@@H]([C@@H](C)O)C(=O)N1)[C@@H](C)O [Compound 107, [19CD]-isoGlu-RC()NTATC()ATQRLAEFLHRSSNNF-Gly(Me)-A-Ile(Me)-LSSTNVGSNT-Aze-NH2] ({C20 diacid-γGlu}-RCNTATCATQRLAEFLHRSSNNF[Sar]A[NMeI]LSSTNVGSNT[Aze]-NH2; disulfide 2-7) |  | FND | FND | 16 hours | 9.28 |
